{"source": "patent US6638970B2", "about": "“Substituted alkylene diamine compounds” (CV Therapeutics, Inc., priority 2000, dated 2003)", "key": {"[1]": {"test": "Metabolic stability in human liver S-9 fractions", "type": "in vitro ADME", "conditions": "for Liver S-9 stability factor: % parent remaining after 30 min in human liver S-9 divided by average % of ranolazine remaining (57%)", "protocol": "Metabolic Stability: As a measure of metabolic stability the compounds of this invention were incubated with human liver S-9 microsomal fractions. After, 30 minutes at 37 C, the amount of parent drug remaining was determined using LC-mass spec. The response factors for each compound was determined by establishing a standard curve and using an internal standard during the analysis of the samples. An average of five experiments for percentage of ranolazine remaining at the 30 minute time point is 57%. The compounds of this invention were assayed as described in the protocol below and the percentage of parent remaining was divided by the average % of ranolazine remaining (57%) affording a metabolic stability factor. A compound with a stability number greater than 1.2 has a better stability than ranolazine in the liver S-9 assay. A compound with a stability number between 1.2 and 0.8 has an equivalent stability in the liver S-9 assay.\nThe purpose of this experiment is to compare the percentages remaining for compounds of this invention with the percentage remaining for ranolazine after 30 minutes of incubation with human liver S9 fractions.\nThe following reagents were used; Potassium phosphate, 0.5M […]. (incubation buffer), kept at room temperature; 0.05M MgCl2 kept at 4° C.; β-Nicotinamide adenine dinucleotide phosphate, tetrasodium salt, reduced form (NADPH), 0.02M solution in water (˜16.6 mg/mL) from Sigma Lot # 79H7044 prepared on day of use. 1 mM of ranolazine or Compounds 7, 9, and 10-13 in ACN further diluted to obtain 100 μM in 10% ACN; Human S9 stock: 20 mg/mL from Gentest Lot 3.\nIncubation mixtures were prepared as follows:\nCombine all components with incubation buffer and re-pipette 200 μL/tube+25 μL of the compound being tested along with 25 μL of S-9.\nAfter 5 min of pre-incubation at 37° C., at 0 and 30 min after starting the reaction, a 50 μl aliquot of the incubation mixture was removed and added to 100 μL of 9:1 acetonitrile:methanol containing the internal standard.\nThe mixture was centrifuged and a 100 μL aliquot of the supernatant was diluted in 1 mL of solvent C (0.1% Formic Acid in water). Then samples were analyzed for change between the ratio of compound to internal standard at time zero and 30 minutes by LC/MS (injected 10 μL).\nSamples were analyzed for the starting compounds and potential metabolite/s by LC/MS using an internal standard on a Micromass platform mass spec with a Keystone Inc. BDS ODS-C18 column with a flow rate of 0.25 ml/min."}, "[2]": {"tested_on": "mitochondrial fatty acid oxidation using palmitoyl CoA as substrate", "test": "Palmitoyl CoA oxidation in isolated rat heart mitochondria", "type": "biochemical", "conditions": "15 min at 30° C.", "protocol": "(§1) Rat heart mitochodria were isolated by the method of Nedergard and Cannon (Methods in Enzymol. 55, 3, 1979).\n(§2) Palmitoyl CoA oxidation—The Palmitoyl CoA oxidation was carried out in a total volume of 100 microliters containing the following agents: 110 mM KCl, 33 mM Tris buffer at pH 8, 2 mM KPi, 2 mM MgCl2, 0.1 mM EDTA, 14.7 microM defatted BSA, 0.5 mM malic acid, 13 mM carnitine, 1 mM ADP, 52 micrograms of mitochondrial protein, and 16 microM 1-C14 palmitoyl CoA (Sp. Activity 60 mCi/mmole; 20 microCi/ml, using 5 microliters per assay). The compounds of this invention were added in a DMSO solution at the following concentrations: 100 microM, 30 microM, and 3 microM. In each assay, a DMSO control was used. After 15 min at 30° C., the enzymatic reaction was centrifuged (20,000 g for 1 min), and 70 microliters of the supernatant was added to an activated reverse phase silicic acid column (approximately 0.5 ml of silicic acid). The column was eluted with 2 ml of water, and 0.5 ml of the eluent was used for scintillation counting to determine the amount of C^14 trapped as C^14 bicarbonate ion. The data are presented as % activity of control."}, "[3]": {"tested_on": "mitochondrial fatty acid oxidation using palmitoyl carnitine as substrate", "test": "Palmitoyl carnitine oxidation in isolated rat heart mitochondria", "type": "biochemical", "conditions": "15 min at 30° C.", "protocol": "as §1\nas §2, with “Carnitine Oxidation—The” for “CoA oxidation—The”, “carnitine” for “CoA”, “0.1 mg/ml of” for “14.7 microM”, “3” for “13 mM carnitine, 1”, “43” for “16”"}}}
{"compound": "COc1ccccc1OCC(O)CN1CCN(CC(=O)Nc2c(C)cccc2C)CC1", "note": "(racemic) [Ranolazine, (±)-N-(2,6-dimethylphenyl)-4-[2-hydroxy-3-(2-methoxyphenoxy)-propyl]-1-piperazineacetamide, reference compound]", "values": [{"measurement": "Liver S-9 stability factor", "setting": "[1]", "result": 1.0}, {"measurement": "percentage of parent drug remaining at the 30 minute time point", "setting": "[1]; human liver S-9, 30 minutes at 37 C, 10 μM, average of five experiments", "result": 57, "unit": "%"}, {"measurement": "Palmitoyl CoA oxidation activity, % of DMSO control", "setting": "[2]; 30 μM compound", "result": 90, "unit": "%"}, {"measurement": "Palmitoyl CoA oxidation activity, % of DMSO control", "setting": "[2]; 100 μM compound", "result": 75, "unit": "%"}, {"measurement": "Palmitoyl carnitine oxidation remaining, % activity of DMSO control", "setting": "[3]; 30 μM compound", "result": 98, "unit": "%"}, {"measurement": "Palmitoyl carnitine oxidation remaining, % activity of DMSO control", "setting": "[3]; 100 μM compound", "result": 63, "unit": "%"}]}
{"compound": "Cc1cccc(C)c1NC(=O)CN(C)CCN(C)CC(O)COc1ccc2c(c1)OCO2", "note": "(stereo not shown) [Compound 7, 2-({2-[(3-(2H-benzo[d]1,3-dioxolen-5-yloxy)-2-hydroxypropyl)methylamino]ethyl}methylamino)-N-(2,6-dimethylphenyl)acetamide]", "values": [{"measurement": "Liver S-9 stability factor", "setting": "[1]", "result": 1.51}]}
{"compound": "COc1ccccc1OCC(O)CN(C)CCN(C)CC(=O)Nc1c(C)cccc1C", "note": "(stereo not shown) [Compound 9]", "values": [{"measurement": "Palmitoyl CoA oxidation activity, % of DMSO control", "setting": "[2]; 100 μM compound", "result": 8.83, "unit": "%"}]}
{"compound": "Cc1cccc(C)c1NC(=O)CN(C)CCN(C)CC(O)COc1c(Cl)cccc1Cl", "note": "(stereo not shown) [Compound 10]", "values": [{"measurement": "Palmitoyl CoA oxidation activity, % of DMSO control", "setting": "[2]; 100 μM compound", "result": 23, "unit": "%"}]}
{"compound": "COc1ccccc1CC(O)CN(C)CCN(C)CC(=O)Nc1c(C)cccc1C", "note": "(stereo not shown) [Compound 11]", "values": [{"measurement": "Palmitoyl CoA oxidation activity, % of DMSO control", "setting": "[2]; 100 μM compound", "result": 8, "unit": "%"}]}
{"compound": "Cc1cccc(C)c1NC(=O)CN(C)CCN(C)CC(O)Cc1cccc2ccccc12", "note": "(stereo not shown) [Compound 12]", "values": [{"measurement": "Palmitoyl CoA oxidation activity, % of DMSO control", "setting": "[2]; 100 μM compound", "result": 26.5, "unit": "%"}]}
{"compound": "CCN(CCN(CC)CC(O)COc1ccccc1OC)CC(=O)Nc1c(C)cccc1C", "note": "(stereo not shown) [Compound 13]", "values": [{"measurement": "Palmitoyl CoA oxidation activity, % of DMSO control", "setting": "[2]; 100 μM compound", "result": 67.8, "unit": "%"}]}
{"compound": "CCN(CCN(CC)CC(O)COc1c(Cl)cccc1Cl)CC(=O)Nc1c(C)cccc1C", "note": "(stereo not shown) [Compound 14]", "values": [{"measurement": "Palmitoyl CoA oxidation activity, % of DMSO control", "setting": "[2]; 100 μM compound", "result": 97.1, "unit": "%"}]}
{"compound": "CCN(CCN(CC)CC(O)c1ccccc1Cl)CC(=O)Nc1c(C)cccc1C", "note": "(stereo not shown) [Compound 17]", "values": [{"measurement": "Liver S-9 stability factor", "setting": "[1]", "result": 0.01}, {"measurement": "Palmitoyl CoA oxidation activity, % of DMSO control", "setting": "[2]; 100 μM compound", "result": 34.3, "unit": "%"}]}
{"compound": "CCN(CCN(CC)CC(O)c1ccccc1F)CC(=O)Nc1c(C)cccc1C", "note": "(stereo not shown) [Compound 18]", "values": [{"measurement": "Palmitoyl CoA oxidation activity, % of DMSO control", "setting": "[2]; 100 μM compound", "result": 54.8, "unit": "%"}]}
{"compound": "CCN(CCN(CC)CC(O)Cc1ccc2c(c1)OCO2)CC(=O)Nc1c(C)cccc1C", "note": "(stereo not shown) [Compound 19]", "values": [{"measurement": "Palmitoyl CoA oxidation activity, % of DMSO control", "setting": "[2]; 100 μM compound", "result": 26, "unit": "%"}, {"measurement": "Palmitoyl carnitine oxidation remaining, % activity of DMSO control", "setting": "[3]; 100 μM compound", "result": 97.1, "unit": "%"}]}
{"compound": "Cc1cccc(C)c1NC(=O)CN(C)CCN(C)CC(O)Cc1ccc2c(c1)OCO2", "note": "(stereo not shown) [Compound 20]", "values": [{"measurement": "Liver S-9 stability factor", "setting": "[1]", "result": 1.59}, {"measurement": "Palmitoyl carnitine oxidation remaining, % activity of DMSO control", "setting": "[3]; 100 μM compound", "result": 98.7, "unit": "%"}]}
{"compound": "Cc1cccc(C)c1NC(=O)CN(C)CCCN(C)CC(O)Cc1ccccc1", "note": "(stereo not shown) [Compound 21]", "values": [{"measurement": "Liver S-9 stability factor", "setting": "[1]", "result": 0.08}, {"measurement": "Palmitoyl carnitine oxidation remaining, % activity of DMSO control", "setting": "[3]; 100 μM compound", "result": 4.9, "unit": "%"}]}
{"compound": "Cc1cccc(C)c1NC(=O)CN(C)CCCN(C)CC(O)Cc1ccc2c(c1)OCO2", "note": "(stereo not shown) [Compound 22]", "values": [{"measurement": "Liver S-9 stability factor", "setting": "[1]", "result": 1.58}, {"measurement": "Palmitoyl CoA oxidation activity, % of DMSO control", "setting": "[2]; 100 μM compound", "result": 12.5, "unit": "%"}, {"measurement": "Palmitoyl carnitine oxidation remaining, % activity of DMSO control", "setting": "[3]; 100 μM compound", "result": 97, "unit": "%"}]}
